Measured values: patent US11345702B1 (Myoforte Therapeutics, Inc., priority 2020, dated 2022)

Target: 15-PGDH/HPGD (Homo sapiens (Human), UniProt P15428)
Test: hPGDH inhibitor screening biochemical assay
Settings: read-out: hPGDH: Average IC50
Experimental: A hydroxyprostaglandin dehydrogenase inhibition screening biochemical assay can be performed to assess the synthesized inhibitors provided herein. Provided herein is an exemplary biochemical assay for hPGDH inhibitor screening.
The in vitro biochemical assay can be performed in white, 384 plates in total 20 μl reaction volume consisting of 10 nM of 15-PGDH/HPGD (R&D System #5660-DH), 15 μM Prostaglandin E2 (Sigma, Cat #P5640-10MG) and 0.25 mM (3-Nicotinamide adenine dinucleotide sodium salt (Sigma, Cat #N0632-5G) made in reaction buffer (50 mM Tris-HCl, pH 7.5, 0.01% Tween 20) at 10-point dose response curve for test/tool compounds. Briefly, 5 μl (4×) of compounds solution and 5 μl (final concentration, 10 nM) of enzyme solution is added to white 384 well plates and incubated for 10 mins at 37° C. 5 μl (4×) of Prostaglandin E2 and 5 μl (4×) of β-Nicotinamide adenine dinucleotide sodium salt is added to the wells and incubated for 10 mins at room temperature. Fluorescence is recorded at ex/em=340 nm/485 nm. The percentage (%) inhibition of enzyme activity was determined relative to positive control (1% DMSO) and IC50 was calculated using GraphPad prism software (four parameter-variable slope equation).

15-PGDH/HPGD, sequence (P15428 whole entry): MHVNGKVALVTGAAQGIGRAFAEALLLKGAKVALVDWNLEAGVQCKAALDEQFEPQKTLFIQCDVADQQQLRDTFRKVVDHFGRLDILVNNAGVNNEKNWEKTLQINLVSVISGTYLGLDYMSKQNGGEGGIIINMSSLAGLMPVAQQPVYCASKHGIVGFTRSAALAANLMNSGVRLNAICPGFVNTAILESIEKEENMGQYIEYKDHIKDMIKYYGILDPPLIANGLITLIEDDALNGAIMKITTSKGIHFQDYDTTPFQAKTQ

Row | IC50 | SMILES
1 | 100 to 1000 nM | O=C(c1cnc2c(ccn2-c2ccc(C3(C(=O)O)CC3)cc2)c1)N1CCC(F)(F)CC1 [MF-DH-427, 1-(4-(5-(4,4-difluoropiperidine-1-carbonyl)-1H-pyrrolo[2,3-b]pyridin-1-yl)phenyl)cyclopropane-1-carboxylic acid]
2 | < 100 nM | COc1cc(C(=O)N2CCCCC2)ccc1COc1ccccc1Cl [MF-PGDH-038]
3 | < 100 nM | CC(C)(C#N)c1cncc(-n2ccc3cc(C(=O)N4CCC(F)(F)CC4)cnc32)c1 [MF-DH-509, 2-(5-(5-(4,4-difluoropiperidine-1-carbonyl)-1H-pyrrolo[2,3-b]pyridin-1-yl)pyridin-3-yl)-2-methylpropanenitrile]
4 | < 100 nM | CN(C)c1ccc(-n2ccc3cc(C(=O)N4CCCCC4)cnc32)cn1 [MF-DH-366]
5 | < 100 nM | N#Cc1ncc(-n2ccc3cc(C(=O)N4CCCCC4)cnc32)cn1 [MF-DH-397]
6 | < 100 nM | COc1ccc(-n2ccc3c(C#N)c(C(=O)N4CCCCC4)cnc32)cc1 [MF-DH-289, 1-(4-methoxyphenyl)-5-(piperidine-1-carbonyl)-1H-pyrrolo[2,3-b]pyridine-4-carbonitrile]
7 | < 100 nM | O=C(c1ccc2c(c1)ncn2-c1cccc(Cl)c1)N1CCC(F)(F)CC1 [MF-PGDH-026]
8 | < 100 nM | CC(C)(O)CCc1cc2cc(C(=O)N3CCC(F)(F)CC3)cnc2n1-c1ccc(C#N)cc1 [MF-DH-444, 4-(5-(4,4-difluoropiperidine-1-carbonyl)-2-(3-hydroxy-3-methylbutyl)-1H-pyrrolo[2,3-b]pyridin-1-yl)benzonitrile]
9 | ≥ 1000 nM | Cc1nc2c(ccn2-c2cnccn2)cc1C(=O)N1CCC(F)CC1 [MF-DH-148]
10 | 100 to 1000 nM | O=C(c1cnc2c(c1)c(Cl)cn2-c1ccncn1)N1CCC(F)CC1 [MF-DH-132]
11 | < 100 nM | NC[C@@H]1CN(c2cncc(-n3ccc4cc(C(=O)N5CCC(F)(F)CC5)cnc43)c2)C(=O)O1 [MF-DH-479]
12 | < 100 nM | Cc1nc2cc(C(=O)N3CCCCC3)ccc2n1-c1cccc(Cl)c1 [MF-PGDH-091]
13 | ≥ 1000 nM | COc1ccc(-n2ccc3cc(C(=O)N4CC(c5ccccc5)C4)cnc32)cc1 [MF-DH-326]
14 | < 100 nM | COc1ccc(-n2ccc3cc(C(=O)N4CCC(F)CC4)cnc32)cc1 [MF-DH-285]
15 | < 100 nM | N#Cc1ccc(-n2cnc3cc(C(=O)N4CCC(F)(F)CC4)cnc32)cc1 [MF-DH-442]
16 | < 100 nM | C[C@H]1CCCN(C(=O)c2cnc3c(ccn3-c3ccc(C(=O)O)cc3)c2)C1 [MF-DH-562, (S)-4-(5-(3-methylpiperidine-1-carbonyl)-1H-pyrrolo[2,3-b]pyridin-1-yl)benzoic acid]
17 | < 100 nM | O=C(c1ccc2c(c1)ncn2-c1ccc2c(c1)OCO2)N1CCCCC1 [MF-PGDH-062]
18 | < 100 nM | O=C(c1ccc2c(c1)nnn2-c1cccc(Cl)c1)N1CCCCC1 [MF-PGDH-011, (1-(3-chlorophenyl)-1H-benzo[d][1,2,3]triazol-5-yl)(piperidin-1-yl)methanone]
19 | < 100 nM | N#Cc1ccc(-n2ccc3cc(C(=O)N4CC[C@@H](F)C4)cnc32)cc1 (single isomer, unassigned) [MF-DH-575]
20 | < 100 nM | CS(=O)(=O)NCCNC(=O)c1cccc(-n2ccc3cc(C(=O)N4CCC(F)(F)CC4)cnc32)c1 [MF-DH-480, 3-(5-(4,4-difluoropiperidine-1-carbonyl)-1H-pyrrolo[2,3-b]pyridin-1-yl)-N-(2-(methylsulfonamido)ethyl)benzamide]
21 | < 100 nM | O=C(c1cnc2c(ccn2-c2ccccn2)c1)N1CCCCC1 [MF-PGDH-067]
22 | 100 to 1000 nM | O=C(c1ccc2c(c1)ncn2-c1cccc(Cl)c1)N1CCC(O)CC1 [MF-PGDH-052]
23 | < 100 nM | COc1ccc(-n2c(CCC(C)(C)O)cc3cc(C(=O)N4CCCCC4)cnc32)cc1 [MF-DH-330, (2-(3-hydroxy-3-methylbutyl)-1-(4-methoxyphenyl)-1H-pyrrolo[2,3-b]pyridin-5-yl)(piperidin-1-yl)methanone]

Row | IC50 | SMILES
24 | < 100 nM | NC(=O)c1cncc(-n2ccc3cc(C(=O)N4CCC(F)CC4)cnc32)c1 [MF-DH-351]
25 | < 100 nM | O=C(c1ccc(COc2ccccc2-c2cnc[nH]2)cc1)N1CCCCC1 [MF-PGDH-096]
26 | < 100 nM | O=C(c1cnc2c(ccn2-c2cccnc2)c1)N1CCC(F)CC1 [MF-DH-134]
27 | 100 to 1000 nM | COc1ccc(-n2ccc3c(NCc4ccccc4)c(C(=O)N4CCCCC4)cnc32)cc1 [MF-DH-385, (4-(benzylamino)-1-(4-methoxyphenyl)-1H-pyrrolo[2,3-b]pyridin-5-yl) (piperidin-1-yl) methanone]
28 | < 100 nM | Nc1ncc(-n2ccc3cc(C(=O)N4CCCCC4)cnc32)cc1Cl [MF-DH-393]
29 | < 100 nM | CCOC(=O)c1nc2cc(C(=O)N3CCCCC3)ccc2n1-c1cccc(Cl)c1 [MF-PGDH-027, ethyl 1-(3-chlorophenyl)-5-(piperidine-1-carbonyl)-1H-benzo[d]imidazole-2-carboxylate]
30 | < 100 nM | NS(=O)(=O)c1cccc(-n2ccc3cc(C(=O)N4CCC(F)(F)CC4)cnc32)c1 [MF-DH-495]
31 | ≥ 1000 nM | COc1ccc(-n2ccc3cc(C(=O)N4CCC(c5ccccc5)CC4)cnc32)cc1 [MF-DH-325]
32 | < 100 nM | O=C(c1ccc2c(c1)ncn2-c1cccc(Cl)c1)N1CCCCC1 [MF-PGDH-023]
33 | < 100 nM | O=C(c1cnc2c(ccn2-c2ccc(O)nc2)c1)N1CCC(F)CC1 [MF-DH-133]
34 | < 100 nM | O=C(c1cnc2c(c1)c(Cl)cn2-c1cncc(Cl)c1)N1CCCCC1 [MF-DH-274]
35 | < 100 nM | CC(C)(C(N)=O)c1cncc(-n2ccc3cc(C(=O)N4CCC(F)(F)CC4)cnc32)c1 [MF-DH-487, 2-(5-(5-(4,4-difluoropiperidine-1-carbonyl)-1H-pyrrolo[2,3-b]pyridin-1-yl)pyridin-3-yl)-2-methylpropanamide]
36 | < 100 nM | O=C(c1cnc2c(ccn2-c2ccc3[nH]ncc3c2)c1)N1CCCCC1 [MF-DH-319, (1-(1H-indazol-5-yl)-1H-pyrrolo[2,3-b]pyridin-5-yl)(piperidin-1-yl)methanone]
37 | < 100 nM | O=C(c1ccc(CSc2ccccc2Cl)cc1)N1CCCCC1 [MF-PGDH-039]
38 | < 100 nM | O=C(c1cnc2c(ccn2-c2ccn3ccnc3c2)c1)N1CCCCC1 [MF-DH-318]
39 | 100 to 1000 nM | O=C(c1ccc2c(c1)ncn2-c1cccc(Cl)c1)N1CCC1 [MF-PGDH-104]
40 | 100 to 1000 nM | COc1ccccc1C(=O)Nc1ccc(C(=O)N2CCC(F)(F)CC2)cc1 [MF-PGDH-087]
41 | < 100 nM | COc1ccc(-n2ccc3cc(C(=O)N4C[C@H](C)C[C@H](C)C4)cnc32)cc1 [MF-DH-329, ((3R,5S)-3,5-dimethylpiperidin-1-yl)(1-(4-methoxyphenyl)-1H-pyrrolo[2,3-b]pyridin-5-yl)methanone]
42 | < 100 nM | CCOC(=O)CCc1nc2cc(C(=O)N3CCCCC3)ccc2n1-c1cccc(Cl)c1 [MF-PGDH-033, ethyl 3-(1-(3-chlorophenyl)-5-(piperidine-1-carbonyl)-1H-benzo[d]imidazol-2-yl)propanoate]
43 | < 100 nM | CCOc1ccc(-n2ccc3cc(C(=O)N4CCCCC4)cnc32)cc1 [MF-DH-306]
44 | < 100 nM | N#Cc1ccc(-n2ccc3cc(C(=O)N4CCCCC4)cnc32)cn1 [MF-DH-389]
45 | < 100 nM | CN(C)C(=O)c1cncc(-n2ccc3cc(C(=O)N4CCCCC4)cnc32)c1 [MF-DH-363]
46 | < 100 nM | CC(C)(CC(=O)O)NC(=O)c1ccc(-n2ccc3cc(C(=O)N4CCC(F)(F)CC4)cnc32)cc1 [MF-DH-431]
